Patent US9849099B2, “Antimicrobial compounds, compositions and methods of use thereof” (WISCONSIN ALUMNI RESEARCH FOUNDATION, priority 2014, dated 2017)
In brackets after ≈: the same amount, converted by molar mass. Several values for one entry are separate records, joined by “and”; a condition that tells them apart may be missing. Identical values can stand only once. Like-named read-outs stand apart in the source and are kept apart here.

Assays:
Pseudomonas aeruginosa [1] = assay: MBC and antibacterial mode; type: cell-based
Procedure: (§1) The antibacterial mode (i.e., bactericidal, bacteriostatic) was determined by calculating the quotient of the MBC and the MIC. Compounds with a quotient >4 are defined as bacteriostatic; if the quotient is lower than 4, compounds are defined as bactericidal. A micro-dilution protocol was used to perform MIC and MBC experiments in triplicate according to the CLSI guidelines. […] The total volume (100 μL) in the wells with no visual growth were plated on 1.5% (w/v) LB agar or 1.5% (w/v) Mueller-Hinton agar with 5% sheep blood and incubated for 22 hours at 37° C.

Streptococcus pyogenes [2] = assay: MBC and antibacterial mode; type: cell-based
Procedure: as §1

Klebsiella pneumoniae [3] = assay: MBC and antibacterial mode; type: cell-based
Procedure: as §1

Acinetobacter baumannii [4] = assay: MBC and antibacterial mode; type: cell-based
Procedure: as §1

Shigella boydii [5] = assay: MBC and antibacterial mode; type: cell-based
Procedure: as §1

Staphylococcus aureus [6] = assay: MBC and antibacterial mode; type: cell-based
Procedure: as §1

Salmonella typhimurium [7] = assay: MBC and antibacterial mode; type: cell-based
Procedure: as §1

Vibrio cholerae [8] = assay: MBC and antibacterial mode; type: cell-based
Procedure: as §1

Edwardsiella tarda [9] = assay: MBC and antibacterial mode; type: cell-based
Procedure: as §1

Morganella morganii [10] = assay: MBC and antibacterial mode; type: cell-based
Procedure: as §1

Enterobacter aerogenes [11] = assay: MBC and antibacterial mode; type: cell-based
Procedure: as §1

Pseudomonas aeruginosa [12] = assay: MIC micro-dilution; type: cell-based
Procedure: (§2) Luria-Bertani (LB) media (10 g/L tryptone, 10 g/L NaCl, 5 g/L yeast extract, pH 7.0) was used to grow all bacterial strains, except Streptococcus pyogenes. Streptococcus pyogenes was grown in Mueller-Hinton broth containing 5% (v/v) sheep blood. All bacterial cultures were grown at 37° C. All the E. coli strains were grown while shaking at 200 rpm, while clinical pathogens were incubated without shaking.
(§3) The MIC of all the strains was determined in LB media except Streptococcus pyogenes, which was grown in Mueller-Hinton media containing 5% (v/v) sheep blood. The micro-dilution method was utilized in 96-well clear flat-bottom plates (100 μL/well) according to the CLSI guidelines. All strains were grown at 37° C. for 16-18 hours in presence of various concentrations of compound. The MIC was determined by a visual inspection and experiments were performed in triplicate.

Streptococcus pyogenes [13] = assay: MIC micro-dilution; type: cell-based; conditions: Mueller-Hinton media containing 5% (v/v) sheep blood, 37° C., 16-18 hours
Procedure: as §2, §3

Klebsiella pneumoniae [14] = assay: MIC micro-dilution; type: cell-based
Procedure: as §2, §3

Acinetobacter baumannii [15] = assay: MIC micro-dilution; type: cell-based
Procedure: as §2, §3

Shigella boydii [16] = assay: MIC micro-dilution; type: cell-based; conditions: LB media, 37° C., 16-18 hours
Procedure: as §2, §3

Staphylococcus aureus [17] = assay: MIC micro-dilution; type: cell-based
Procedure: as §2, §3

Salmonella typhimurium [18] = assay: MIC micro-dilution; type: cell-based
Procedure: as §2, §3

Vibrio cholerae [19] = assay: MIC micro-dilution; type: cell-based
Procedure: as §2, §3

Edwardsiella tarda [20] = assay: MIC micro-dilution; type: cell-based
Procedure: as §2, §3

Morganella morganii [21] = assay: MIC micro-dilution; type: cell-based
Procedure: as §2, §3

Bacillus subtilis 168 = assay: MIC micro-dilution; type: cell-based; conditions: Bacillus subtilis, 168
Procedure: as §2, §3

Enterobacter aerogenes [22] = assay: MIC micro-dilution; type: cell-based
Procedure: as §2, §3

[23] = tested on: E. coli anucleate cell strain (SH3210); assay: High throughput anucleate cell assay; type: cell-based, Escherichia coli; conditions: screen of small molecule libraries
Procedure: Briefly, E. coli anucleate cell strain (SH3210; ΔtrpR5 his λ pXX747) is used in the assay. […] The anucleated cells thus appear fluorescent in the presence of a fluorescent substrate (e.g., DDOAG) for LacZ. The protocol is summarized as follows: • 1. Prepare overnight culture of E. coli anucleate cell strain (SH3210) from LB-ampicillin plates. • 2. Dilute starter culture 1:1000 with liquid LB treated with 50 mg/ml of ampicillin and incubate for approximately 2.5 hr at 37° C. until approximately 0.1 OD600. • 3. Split diluted culture into wells (200 μL) • i. […] Negative control: 1 μL of DMSO • 4. Incubate diluted culture with compounds for approximately 2.5 hr at 42° C. at 300 rpm in a clear plate. • 5. Incubate cultures on ice for approximately 10 min until condensation on the cover disappears. • 6. Measure absorbance at a wavelength of 595 nm. • 7. In a black 96-well plate, add 80 μL of Z-buffer (600 mM Na2HPO4, 40 mM NaH2PO4, 10 mM KCl, 0.1 MgSO4) to each well pre-loaded with the following reagents: • a. Cell lysis solution called Popculture™ (1:5 Popculture™ to buffer). Popculture™ is a buffered mixture of concentrated detergents. • b. […] Shake for 30 s and measure fluorescence at a wavelength of 659 nm. • 13. Normalize the fluorescence measurements by dividing by OD595.

[24] = tested on: broad panel of human pathogens; assay: MIC against the panel of pathogens; type: cell-based
Procedure: as §2, §3

CCCCCCCCCOc1ccc2[nH]cc(CCN)c2c1 [Compound 1, 5-nonyloxytryptamine]
Antibacterial Mode (Pseudomonas aeruginosa [1]): Bacteriostatic (Compounds with a quotient >4 are defined as bacteriostatic) | MBC (Pseudomonas aeruginosa [1]): 96 µg/mL (≈ 317 µM) | MBC/MIC (Pseudomonas aeruginosa [1]): 4 | Antibacterial Mode (Streptococcus pyogenes [2]): Bactericidal (if the quotient is lower than 4, compounds are defined as bactericidal) | MBC (Streptococcus pyogenes [2]): 24 µg/mL (≈ 79.3 µM) | MBC/MIC (Streptococcus pyogenes [2]): 1 | Antibacterial Mode (Klebsiella pneumoniae [3]): Bactericidal (if the quotient is lower than 4, compounds are defined as bactericidal) | MBC (Klebsiella pneumoniae [3]): 6 µg/mL (≈ 19.8 µM) | MBC/MIC (Klebsiella pneumoniae [3]): 1 | Antibacterial Mode (Acinetobacter baumannii [4]): Bactericidal (if the quotient is lower than 4, compounds are defined as bactericidal) | MBC (Acinetobacter baumannii [4]): 6 µg/mL (≈ 19.8 µM) | MBC/MIC (Acinetobacter baumannii [4]): 1 | Antibacterial Mode (Shigella boydii [5]): Bactericidal (if the quotient is lower than 4, compounds are defined as bactericidal) | MBC (Shigella boydii [5]): 6 µg/mL (≈ 19.8 µM) | MBC/MIC (Shigella boydii [5]): 1 | Antibacterial Mode (Staphylococcus aureus [6]): Bactericidal (if the quotient is lower than 4, compounds are defined as bactericidal) | MBC (Staphylococcus aureus [6]): 6 µg/mL (≈ 19.8 µM) | MBC/MIC (Staphylococcus aureus [6]): 2 | Antibacterial Mode (Salmonella typhimurium [7]): Bacteriostatic (Compounds with a quotient >4 are defined as bacteriostatic) | MBC/MIC (Salmonella typhimurium [7]): 4 | MBC (Salmonella typhimurium [7]; Salmonella enterica): 24 µg/mL (≈ 79.3 µM) | Antibacterial Mode (Vibrio cholerae [8]): Bacteriostatic (Compounds with a quotient >4 are defined as bacteriostatic) | MBC (Vibrio cholerae [8]): 24 µg/mL (≈ 79.3 µM) | MBC/MIC (Vibrio cholerae [8]): 4 | Antibacterial Mode (Edwardsiella tarda [9]): Bactericidal (if the quotient is lower than 4, compounds are defined as bactericidal) | MBC (Edwardsiella tarda [9]): 12 µg/mL (≈ 39.7 µM) | MBC/MIC (Edwardsiella tarda [9]): 2 | Antibacterial Mode (Morganella morganii [10]): Bactericidal (if the quotient is lower than 4, compounds are defined as bactericidal) | MBC (Morganella morganii [10]): 24 µg/mL (≈ 79.3 µM) | MBC/MIC (Morganella morganii [10]): 2 | Antibacterial Mode (Enterobacter aerogenes [11]): Bacteriostatic (Compounds with a quotient >4 are defined as bacteriostatic) | MBC/MIC (Enterobacter aerogenes [11]): >4 | MBC (Enterobacter aerogenes [11]; Klebsiella aerogenes): > 96 µg/mL | MIC (Pseudomonas aeruginosa [12]): 80 µM and 24 µg/mL | MIC (Streptococcus pyogenes [13]): 24 µg/mL (≈ 79.3 µM) | MIC (Klebsiella pneumoniae [14]): 6 µg/mL (≈ 19.8 µM) | MIC (Klebsiella pneumoniae [14]; LB media, 37° C., 16-18 hours): 6.0 µg/mL (≈ 19.8 µM) | MIC (Acinetobacter baumannii [15]): 6 µg/mL (≈ 19.8 µM) | MIC (Acinetobacter baumannii [15]; LB media, 37° C., 16-18 hours): 6.0 µg/mL (≈ 19.8 µM) | MIC (Shigella boydii [16]): 6.0 µg/mL (≈ 19.8 µM) | MIC (Shigella boydii [16]; read-out: MIC): 6 µg/mL (≈ 19.8 µM) | MIC (Staphylococcus aureus [17]): 3 µg/mL (≈ 9.92 µM) | MIC (Staphylococcus aureus [17]; LB media, 37° C., 16-18 hours): 3.0 µg/mL (≈ 9.92 µM) | MIC (Salmonella typhimurium [18]; Salmonella enterica, TYPHIMURIUM): 6 µg/mL (≈ 19.8 µM) | MIC (Salmonella typhimurium [18]; Salmonella typhimurium, LB media, 37° C., 16-18 hours): 6.0 µg/mL (≈ 19.8 µM) | MIC (Vibrio cholerae [19]): 6 µg/mL (≈ 19.8 µM) | MIC (Vibrio cholerae [19]; LB media, 37° C., 16-18 hours): 6.0 µg/mL (≈ 19.8 µM) | MIC (Edwardsiella tarda [20]): 6 µg/mL (≈ 19.8 µM) | MIC (Edwardsiella tarda [20]; LB media, 37° C., 16-18 hours): 6.0 µg/mL (≈ 19.8 µM) | MIC (Morganella morganii [21]): 12 µg/mL (≈ 39.7 µM) | MIC (Bacillus subtilis 168): 0.76 µg/mL (≈ 2.51 µM) | MIC (Enterobacter aerogenes [22]; Enterobacter aerogenes, LB media, 37° C., 16-18 hours): 6.0 µg/mL (≈ 19.8 µM) | MIC (Enterobacter aerogenes [22]; Klebsiella aerogenes): 6 µg/mL (≈ 19.8 µM) | hit in anucleate cell screen [23]: potent hit | MIC ([24]; Pseudomonas aeruginosa): 5 to 20 µM | MIC ([24]; against the pathogens tested, except Pseudomonas aeruginosa, read-out: MIC): 3 to 12 µg/mL
